Measurements taken from PubChem BioAssay (NCI).
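Exposure lasted 48 hours, with cells grown in 96-well plates and compounds tested at five concentrations. The concentration for 50% growth inhibition is given as GI50. Definition used: TGI = concentration required for complete inhibition of growth.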

Tests used:
Assay in all cases: NCI tumour cell line growth inhibition, 48 h
786-0 renal = system: 786-0 renal
A498 renal = system: A498 renal
A549 NSCLC = system: A549 NSCLC
ACHN renal = system: ACHN renal
BT-549 breast = system: BT-549 breast
CAKI-1 renal = system: CAKI-1 renal
CCRF-CEM leukemia = system: CCRF-CEM leukemia
COLO 205 colon = system: COLO 205 colon
DU-145 prostate = system: DU-145 prostate
EKVX NSCLC = system: EKVX NSCLC
HCC-2998 colon = system: HCC-2998 colon
HCT-116 colon = system: HCT-116 colon
HCT-15 colon = system: HCT-15 colon
HL-60(TB) leukemia = system: HL-60(TB) leukemia
HOP-62 NSCLC = system: HOP-62 NSCLC
HOP-92 NSCLC = system: HOP-92 NSCLC
HS 578T breast = system: HS 578T breast
HT29 colon = system: HT29 colon
IGROV1 ovarian = system: IGROV1 ovarian
K-562 leukemia = system: K-562 leukemia
KM12 colon = system: KM12 colon
LOX IMVI melanoma = system: LOX IMVI melanoma
M14 melanoma = system: M14 melanoma
MALME-3M melanoma = system: MALME-3M melanoma
MCF7 breast = system: MCF7 breast
MDA-MB-231 breast = system: MDA-MB-231 breast
MDA-MB-435 = system: MDA-MB-435
MOLT-4 leukemia = system: MOLT-4 leukemia
NCI-H226 lung = system: NCI-H226 lung
NCI-H23 lung = system: NCI-H23 lung
NCI-H460 lung = system: NCI-H460 lung
NCI-H522 lung = system: NCI-H522 lung
NCI/ADR-RES ovarian = system: NCI/ADR-RES ovarian
OVCAR-3 ovarian = system: OVCAR-3 ovarian
OVCAR-4 ovarian = system: OVCAR-4 ovarian
OVCAR-5 ovarian = system: OVCAR-5 ovarian
OVCAR-8 ovarian = system: OVCAR-8 ovarian
PC-3 prostate = system: PC-3 prostate
RPMI-8226 leukemia = system: RPMI-8226 leukemia
RXF 393 renal = system: RXF 393 renal
SF-268 CNS = system: SF-268 CNS
SF-295 CNS = system: SF-295 CNS
SF-539 CNS = system: SF-539 CNS
SK-MEL-2 melanoma = system: SK-MEL-2 melanoma
SK-MEL-28 melanoma = system: SK-MEL-28 melanoma
SK-MEL-5 melanoma = system: SK-MEL-5 melanoma
SK-OV-3 ovarian = system: SK-OV-3 ovarian
SN12C renal = system: SN12C renal
SNB-19 CNS = system: SNB-19 CNS
SNB-75 CNS = system: SNB-75 CNS
SR leukemia = system: SR leukemia
SW-620 colon = system: SW-620 colon
T-47D breast = system: T-47D breast
TK-10 renal = system: TK-10 renal
U251 CNS = system: U251 CNS
UACC-257 melanoma = system: UACC-257 melanoma
UACC-62 melanoma = system: UACC-62 melanoma
UO-31 renal = system: UO-31 renal

CCCN(CCC)CCCNC(=O)c1cc2c(-c3ccc(OC)c(OC)c3)nn(C)c2s1 showed a GI50 (786-0 renal) of 17.9 µM, a TGI (786-0 renal) of 91 µM and a GI50 (A498 renal) of 3.06 µM. It also gave a TGI (A498 renal) of over 100 µM, a GI50 (A549 NSCLC) of 36.5 µM and a TGI (A549 NSCLC) of over 100 µM. For the same compound, the GI50 (ACHN renal) was 17.2 µM, the TGI (ACHN renal) was 39.5 µM and the GI50 (BT-549 breast) was 20.9 µM. For the same compound, the TGI (BT-549 breast) was 87 µM, the GI50 (CAKI-1 renal) was 27.1 µM and the TGI (CAKI-1 renal) was over 100 µM. The GI50 (CCRF-CEM leukemia) was 20.3 µM, the TGI (CCRF-CEM leukemia) was 65.6 µM and the GI50 (COLO 205 colon) was 13.6 µM. The TGI (COLO 205 colon) was 30.3 µM, the GI50 (DU-145 prostate) was 39.1 µM and the TGI (DU-145 prostate) was over 100 µM. For the same compound, the GI50 (EKVX NSCLC) was 71.7 µM, the TGI (EKVX NSCLC) was over 100 µM and the GI50 (HCC-2998 colon) was 18.8 µM. For the same compound, the TGI (HCC-2998 colon) was 37.7 µM, the GI50 (HCT-116 colon) was 17.7 µM and the TGI (HCT-116 colon) was 55.3 µM. The GI50 (HCT-15 colon) was 25 µM, the TGI (HCT-15 colon) was over 100 µM and the GI50 (HL-60(TB) leukemia) was 20.7 µM. For the same compound, the TGI (HL-60(TB) leukemia) was 46.2 µM, the GI50 (HOP-62 NSCLC) was 37.2 µM and the TGI (HOP-62 NSCLC) was over 100 µM. The GI50 (HOP-92 NSCLC) was 6.15 µM, the TGI (HOP-92 NSCLC) was 46.9 µM and the GI50 (HS 578T breast) was 22.9 µM. For the same compound, the TGI (HS 578T breast) was over 100 µM, the GI50 (HT29 colon) was 14.5 µM and the TGI (HT29 colon) was 45.3 µM. It also gave a GI50 (IGROV1 ovarian) of 43.3 µM, a TGI (IGROV1 ovarian) of over 100 µM and a GI50 (K-562 leukemia) of 21.5 µM. The TGI (K-562 leukemia) was 66.2 µM, the GI50 (KM12 colon) was 26 µM and the TGI (KM12 colon) was over 100 µM. The GI50 (LOX IMVI melanoma) was 15.1 µM, the TGI (LOX IMVI melanoma) was 31 µM and the GI50 (M14 melanoma) was 17.2 µM. The TGI (M14 melanoma) was 35 µM, the GI50 (MALME-3M melanoma) was 18.4 µM and the TGI (MALME-3M melanoma) was 35.8 µM. The GI50 (MCF7 breast) was 18.2 µM, the TGI (MCF7 breast) was 42.1 µM and the GI50 (MDA-MB-231 breast) was 18.8 µM. The TGI (MDA-MB-231 breast) was 41.3 µM, the GI50 (MDA-MB-435) was 14.1 µM and the TGI (MDA-MB-435) was 31.8 µM. For the same compound, the GI50 (MOLT-4 leukemia) was 17.6 µM, the TGI (MOLT-4 leukemia) was 59.5 µM and the GI50 (NCI-H226 lung) was over 100 µM. It also gave a TGI (NCI-H226 lung) of over 100 µM, a GI50 (NCI-H23 lung) of 58 µM and a TGI (NCI-H23 lung) of over 100 µM. It also gave a GI50 (NCI-H460 lung) of 32.6 µM, a TGI (NCI-H460 lung) of over 100 µM and a GI50 (NCI-H522 lung) of 16.6 µM. The TGI (NCI-H522 lung) was 41.3 µM, the GI50 (NCI/ADR-RES ovarian) was 33.4 µM and the TGI (NCI/ADR-RES ovarian) was over 100 µM. The GI50 (OVCAR-3 ovarian) was 21.5 µM, the TGI (OVCAR-3 ovarian) was over 100 µM and the GI50 (OVCAR-4 ovarian) was 23.5 µM. For the same compound, the TGI (OVCAR-4 ovarian) was over 100 µM, the GI50 (OVCAR-5 ovarian) was 50.4 µM and the TGI (OVCAR-5 ovarian) was over 100 µM. It also gave a GI50 (OVCAR-8 ovarian) of 36.9 µM, a TGI (OVCAR-8 ovarian) of over 100 µM and a GI50 (PC-3 prostate) of 33.8 µM. The TGI (PC-3 prostate) was over 100 µM, the GI50 (RPMI-8226 leukemia) was 14.6 µM and the TGI (RPMI-8226 leukemia) was 42.2 µM. For the same compound, the GI50 (RXF 393 renal) was 10.7 µM, the TGI (RXF 393 renal) was 31.1 µM and the GI50 (SF-268 CNS) was 31.1 µM. The TGI (SF-268 CNS) was over 100 µM, the GI50 (SF-295 CNS) was 21.6 µM and the TGI (SF-295 CNS) was 49.4 µM. It also gave a GI50 (SF-539 CNS) of 16 µM, a TGI (SF-539 CNS) of 31.1 µM and a GI50 (SK-MEL-2 melanoma) of 25.2 µM. The TGI (SK-MEL-2 melanoma) was 72.9 µM, the GI50 (SK-MEL-28 melanoma) was 16.6 µM and the TGI (SK-MEL-28 melanoma) was 32.1 µM. It also gave a GI50 (SK-MEL-5 melanoma) of 15.4 µM, a TGI (SK-MEL-5 melanoma) of 29 µM and a GI50 (SK-OV-3 ovarian) of 44.3 µM. The TGI (SK-OV-3 ovarian) was over 100 µM, the GI50 (SN12C renal) was 54.9 µM and the TGI (SN12C renal) was over 100 µM. The GI50 (SNB-19 CNS) was 34.2 µM, the TGI (SNB-19 CNS) was over 100 µM and the GI50 (SNB-75 CNS) was 12.3 µM. For the same compound, the TGI (SNB-75 CNS) was 40.5 µM, the GI50 (SR leukemia) was 11.9 µM and the TGI (SR leukemia) was 58.9 µM. The GI50 (SW-620 colon) was 24.5 µM, the TGI (SW-620 colon) was 82.6 µM and the GI50 (T-47D breast) was 27.5 µM. It also gave a TGI (T-47D breast) of 98.7 µM, a GI50 (TK-10 renal) of 40.9 µM and a TGI (TK-10 renal) of over 100 µM. The GI50 (U251 CNS) was 25.3 µM, the TGI (U251 CNS) was over 100 µM and the GI50 (UACC-257 melanoma) was 17.3 µM. The TGI (UACC-257 melanoma) was 34.4 µM, the GI50 (UACC-62 melanoma) was 16.9 µM and the TGI (UACC-62 melanoma) was 33 µM. It also gave a GI50 (UO-31 renal) of 13.6 µM and a TGI (UO-31 renal) of 47 µM.
